For orientation: pIC50 means the negative decadic logarithm of the IC50, by convention in mol/L.

The target in the test is T1, HDM2 (Homo sapiens, UniProt Q00987).
T1 construct: Thioredoxin (N); made in house; host or cells: E. coli strain BL21(DE3)Rosetta
Nature of the test: HDM2 FRET assay (inhibition of binding of FITC labeled p53-pocket peptide to HDM2). Conditions: for pIC50: read-out: FRET IC50. From the text:
Methods: An HDM2 FRET assay was developed to assess the compounds' inhibitory activity towards binding of p53 protein. […] Protein was purified using Ni-affinity chromatography, followed by size exclusion chromatography using Superdex 75 26/60 column. […] The HDM2 assay buffer contained 1x Phosphate Buffered Saline (Invitrogen, Cat#14190), 0.01% BSA (Jackson ImmunoResearch, Cat# 001-000-162), 0.01% Tween-20. In the 1X assay buffer recombinant HDM2 protein, peptide and Lumi4-Tb Cryptate-conjugate mouse anti-6xHis antibody (cisbio, Cat#Tb61HISTLB) were added and transferred to ProxiPlate PLUS (PerkinElmer, Cat#6008269), containing compounds so that final DMSO concentration is 0.1% . Final concentrations of reagents in the assay wells are 0.5 nM HDM2, 0.25nM anti HIS (Tb label) antibody and 3nM peptide. […] Ratio of em520/em495 was used to calculate %inhibition and to obtain IC50 with 4-parameter logistic equation.
IC50 DETERMINATIONS: Dose-response curves were plotted from the inhibition data, from 10 point serial dilutions of inhibitory compounds. Concentration of compound was plotted against em520/Cem495 ratio signal. To generate IC50 values, the dose-response curves were fitted to a standard sigmoidal curve and IC50 values were derived by nonlinear regression analysis.

Setting [1] is: 0.5 nM HDM2 (residues 17 to 125), 3nM peptide, two hour incubation at room temperature.

pIC50: −log10 of the molar value. Like-named read-outs stand apart in the source and are kept apart here.

T1 sequence (Q00987 17-125): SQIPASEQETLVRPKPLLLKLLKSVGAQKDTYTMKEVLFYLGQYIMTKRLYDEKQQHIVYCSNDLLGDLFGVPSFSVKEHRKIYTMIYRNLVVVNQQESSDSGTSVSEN

Regarding `Cc1ncc(Cl)cc1-c1nc(-c2n[nH]c(=O)o2)nc2nc(N3CCOC[C@H]3c3ccccc3)n(C[C@H]3CC[C@H](C)CC3)c12` [Example 16.159, 5-{6-(5-chloro-2-methylpyridin-3-yl)-7-[(trans-4-methylcyclohexyl)methyl]-8-[(3R)-3-phenylmorpholin-4-yl]-7H -purin-2-yl}-1,3,4-oxadiazol-2(3H)-one], under setting [1], the pIC50 was 9.15.
Regarding `CCOCC1CCCN1c1nc2nc(-c3noc(=O)[nH]3)nc(N[C@H](C)C3CCC3)c2n1C[C@H]1CC[C@H](C)CC1` (stereo partly drawn) [Example 11.32, 3-(6-{[(1R)-1-cyclobutylethyl]amino}-8-[2-(ethoxymethyl)pyrrolidin-1-yl]-7-[(trans-4-methylcyclohexyl)methyl]-7H-purin-2-yl)-1,2,4-oxadiazol-5(2H)-one], the pIC50 (Table 11) was 8.10.
In the case of `Cc1cccc(-c2nc3nc(C(=O)O)nc(NC4CCOCC4)c3n2Cc2ccc(C(F)(F)F)cc2)c1` [Example 6.43, 8-(3-methylphenyl)-6-(tetrahydro-2H-pyran-4-ylamino)-7-[4-(trifluoromethyl)benzyl]-7H-purine-2-carboxylic acid], where the note is “Table 6”, the pIC50 is 5.77.
As for `C[C@@H]1CN(C(=O)C2CC2)[C@@H](C)CN1c1nc2nc(-c3noc(=O)[nH]3)nc(N[C@H](C)C3CCC3)c2n1C[C@H]1CC[C@H](C)CC1` [Example 17.23, 3-(6-{[(1R)-1-cyclobutylethyl]amino}-8-[(2R,5S)-4-(cyclopropylcarbonyl) -2,5-dimethylpiperazin-1-yl]-7-[(trans-4-methylcyclohexyl)methyl]-7H-purin-2-yl)-1,2,4-oxadiazol-5(4H)-one], the negative logarithm of the IC50 (pIC50) (Table 17.2) was 8.31.
In the case of `C[C@@H](Nc1nc(-c2noc(=O)[nH]2)nc2nc(N3CCCCC3c3cccnc3)n(C[C@H]3CC[C@H](C)CC3)c12)C1CCC1` (single isomer, unassigned) [Example 11.49], the negative-log IC50 (pIC50) (Table 11) was 8.61.
The same measure, in the same setting: the value for `C[C@@H](Nc1nc(C(=O)O)nc2nc(N3CCCC4CCCCC43)n(C[C@H]3CC[C@H](C)CC3)c12)C1CCC1` (stereo partly drawn) [Example 11.20, 6-{[(1R)-1-cyclobutylethyl]amino}-7-[(trans-4-methylcyclohexyl)methyl]-8-(octahydroquinolin-1(2H)-yl)-7H-purine-2-carboxylic acid] was 8.87; that for `C[C@@H](Nc1nc(-c2n[nH]c(=O)o2)nc2nc(N3CCO[C@H](C)[C@H]3c3ccccc3)n(C[C@H]3CC[C@H](C)CC3)c12)C1CCC1` [Example 11.166, 5-(6-{[(1R)-1-cyclobutylethyl]amino}-7-[(trans-4-methylcyclohexyl)methyl]-8-[(2R,3R)-2-methyl-3-phenylmorpholin-4-yl]-7H-purin-2-yl)-1,3,4-oxadiazol-2(3H)-one] was 9.10.
On to `CC[C@H](Nc1nc2nc(-c3noc(=O)[nH]3)nc(-c3cccc(Cl)c3)c2n1C[C@H]1CC[C@H](C)CC1)c1ccccc1` [Example 16.50, 3-[6-(3-chlorophenyl)-7-[(trans-4-methylcyclohexyl)methyl]-8-{[(1S)-1-phenylpropyl]amino} -7H-purin-2-yl]-1,2,4-oxadiazol-5(4H)-one], for which the negative-log IC50 (pIC50) under setting [1] is 8.57.
On to `C[C@@H](Nc1nc(C(=O)O)nc2nc(C(=O)NC3CCCCC3)n(Cc3ccc(C(F)(F)F)cc3)c12)C1CCC1` [Example 10.19, (R)-6-((1-Cyclobutylethyl)amino)-8-(cyclohexylcarbamoyl)-7-(4-(trifluoromethyl)benzyl)-7H-purine-2-carboxylic acid], for which, where the note is “Table 10”, the negative logarithm of the IC50 (pIC50) was 7.17.
Regarding `Cc1csc([C@@H]2COCCN2c2nc3nc(-c4noc(=O)[nH]4)nc(-c4cccc(Cl)c4)c3n2C[C@H]2CC[C@H](C)CC2)n1` [Example 16.120, 3-{6-(3-chlorophenyl)-7-[(trans-4-methylcyclohexyl)methyl]-8-[(3S)-3-(4-methyl-1,3-thiazol-2-yl)morpholin-4-yl]-7H-purin-2-yl}-1,2,4-oxadiazol-5(4H)-one], the pIC50 under setting [1] was 8.04.
Take `C[C@H]1CC[C@H](Cn2c(N3CCOC[C@H]3c3ccccc3)nc3nc(-c4n[nH]c(=O)o4)nc(C4CCCCC4)c32)CC1` [Example 16.166, 5-{6-cyclohexyl-7-[(trans-4-methylcyclohexyl)methyl]-8-[(3R)-3-phenylmorpholin-4-yl]-7H -purin-2-yl}-1,3,4-oxadiazol-2(3H)-one]: the pIC50 under setting [1] was 8.04.
As to `C[C@@H](Nc1nc(C(=O)O)nc2nc(N(CC3CC3)[C@@H](C)c3ccccc3)n(Cc3ccc(C(F)(F)F)cc3)c12)C1CCC1` [Example 10.29, 6-(((R)-1-Cyclobutylethyl)amino)-8-((cyclopropylmethyl)((S)-1-phenylethyl)amino)-7-(4-(trifluoromethyl)benzyl)-7H-purine-2-carboxylic acid], the negative-log IC50 (pIC50) (Table 10) was 7.45.
`COc1ccc(C)cc1-c1nc2nc(C(=O)O)nc(N[C@H](C)C3CCC3)c2n1C[C@H]1CC[C@H](C)CC1` [Example 15.13, 6-{[(1R)-1-cyclobutylethyl]amino}-8-(2-methoxy-5-methylphenyl)-7-[(trans-4-methylcyclohexyl)methyl]-7H-purine-2-carboxylic acid]: the pIC50 under setting [1] is 8.30.
For `C[C@@H](Nc1nc(-c2nc(=O)n(C)[nH]2)nc2nc(N3CCOC[C@H]3c3ccccc3)n(C[C@H]3CC[C@H](C)CC3)c12)C1CCC1` [Example 12.19, 5-(6-{[(1R)-1-cyclobutylethyl]amino}-7-[(trans-4-methylcyclohexyl)methyl]-8-[(3R)-3-phenylmorpholin-4-yl]-7H-purine-2-yl)-2-methyl-2,4-dihydro-3H-1,2,4-triazol-3-one], the pIC50 under setting [1] was 8.79.
For the molecule `CC(C)c1ccnc(-c2nc3nc(C(=O)O)nc(N[C@H](C)C4CCC4)c3n2CC2CCC(F)(F)CC2)c1` [Example 18.3, (R)-6-((1-cyclobutylethyl)amino)-7-((4,4-difluorocyclohexyl)methyl)-8-(4-isopropylpyridin-2-yl)-7H-purine-2-carboxylic acid], for the setting “Table 18”, the pIC50 was 7.24.
On to `CC(C)c1cc(-c2nc3nc(C(=O)O)nc(N[C@H](C)C4CCC4)c3n2C[C@H]2CC[C@H](C)CC2)ncc1F` [Example 15.8, 6-(((R)-1-cyclobutylethyl)amino)-8-(5-fluoro-4-isopropylpyridin-2-yl)-7-((trans-4-methylcyclohexyl)methyl)-7H-purine-2-carboxylic acid], for which the negative logarithm of the IC50 (pIC50) under setting [1] is 8.94.
For `C[C@H]1CC[C@H](Cn2c(C3(F)CCCC3)nc3nc(-c4n[nH]c(=O)o4)nc(-c4cncc(Cl)c4)c32)CC1` [Example 23.40, 5-{6-(5-chloropyridin-3-yl)-8-(1-fluorocyclopentyl)-7-[(trans-4-methylcyclohexyl)methyl] -7H-purin-2-yl}-1,3,4-oxadiazol-2(3H)-one], the pIC50 (Table 23) is 7.82.
As to `CCc1cccc(-c2nc(-c3noc(=O)[nH]3)nc3nc(N4CCOC[C@H]4c4ccccc4)n(C[C@H]4CC[C@H](C)CC4)c23)c1` [Example 16.30, 3-{6-(3-ethylphenyl)-7-[(trans-4-methylcyclohexyl)methyl]-8-[(3R)-3-phenylmorpholin-4-yl]-7H-purin-2-yl}-1,2,4-oxadiazol-5(4H)-one], under setting [1], the pIC50 was 8.56.
As to `CCCN(CC)c1nc(C(=O)O)nc2nc(-c3cccc(C)c3)n(Cc3ccc(C(F)(F)F)cc3)c12` [Example 6.70, 6-[ethyl(propyl)amino]-8-(3-methylphenyl)-7-[4-(trifluoromethyl)benzyl]-7H-purine-2-carboxylic acid], the inhibition at 1 µM (read-out: inh. at 1000 nM (FRET)) is 39%.
Turning to `CC1CN(c2nc(-c3noc(=O)[nH]3)nc3nc(N4CCOC[C@H]4c4ccccc4)n(C[C@H]4CC[C@H](C)CC4)c23)CCO1` (stereo partly drawn) [Example 26.3, 3-{7-[(trans-4-methylcyclohexyl)methyl]-6-(2-methylmorpholin-4-yl)-8-[(3R)-3-phenylmorpholin-4-yl]-7H-purin-2-yl}-1,2,4-oxadiazol-5(4H)-one], the pIC50 (Table 26) is 7.84.
Take `C[C@@H](Nc1nc(-c2noc(=O)[nH]2)nc2nc(-c3nccs3)n(C[C@H]3CC[C@H](C)CC3)c12)C1CCC1` [Example 15.12, 3-(6-(((R)-1-cyclobutylethyl)amino)-7-((trans-4-methylcyclohexyl)methyl)-8-(thiazol-2-yl)-7H-purin-2-yl)-1,2,4-oxadiazol-5(4H)-one]: the pIC50 under setting [1] was 8.20.
`COCC1(N(C)c2nc3nc(-c4noc(=O)[nH]4)nc(N[C@H](C)C4CCC4)c3n2Cc2ccc(C(F)(F)F)cc2)CC1` [Example 9.89, 3-(6-{[(1R)-1-cyclobutylethyl]amino}-8-{[1-(methoxymethyl)cyclopropyl] (methyl)amino}-7-[4-(trifluoromethyl)benzyl]-7H-purin-2-yl)-1,2,4-oxadiazol-5(4H)-one]: the pIC50 (Table 9) is 7.64.
Consider `C[C@@H](Nc1nc(-c2noc(=O)[nH]2)nc2nc(C(C)(F)c3ccccc3F)n(C[C@H]3CC[C@H](C)CC3)c12)C1CCC1` (single isomer, unassigned) [Example 22.62], for which the negative logarithm of the IC50 (pIC50) (Table 22) was 9.25.

The values above are taken from patent EP2951180B1, “2,6,7,8 SUBSTITUTED PURINES AS HDM2 INHIBITORS” (Merck Sharp & Dohme Corp., priority 2013, dated 2014).
